These results are taken from patent publication US7297707B2, “Benzothiazolyl derivatives” (Hoffmann-La Roche Inc., priority 2003, dated 2007).

Experiment [1] deals with T1, human cannabis CB1 receptor (Homo sapiens, UniProt P21554).
T1 construct: expressed in transfected cells; host or cells: human embryonic kidney (HEK) cells, Semliki Forest Virus system, membrane preparation
Description: Affinity for cannabinoid CB1 receptors, [3H]-CP-55,940 radioligand binding on HEK cell membranes. As to conditions: affinity for the CB1 receptor, [3H]-CP-55,940, HEK membranes. As to the method: The affinity of the compounds of the invention for cannabinoid CB1 receptors was determined using membrane preparations of human embryonic kidney (HEK) cells in which the human cannabis CB1 receptor is transiently transfected using the Semliki Forest Virus system in conjunction with [3H]-CP-55,940 as radioligand. After incubation of a freshly prepared cell membrane preparation with the [3H]-ligand, with or without addition of compounds of the invention, separation of bound and free ligand was performed by filtration over glassfiber filters. Radioactivity on the filter was measured by liquid scintillation counting.

For experiment [2] the following is noted: doses of 5, 10 and 20 mg daily; cited from earlier work.

T1 sequence (P21554 whole entry): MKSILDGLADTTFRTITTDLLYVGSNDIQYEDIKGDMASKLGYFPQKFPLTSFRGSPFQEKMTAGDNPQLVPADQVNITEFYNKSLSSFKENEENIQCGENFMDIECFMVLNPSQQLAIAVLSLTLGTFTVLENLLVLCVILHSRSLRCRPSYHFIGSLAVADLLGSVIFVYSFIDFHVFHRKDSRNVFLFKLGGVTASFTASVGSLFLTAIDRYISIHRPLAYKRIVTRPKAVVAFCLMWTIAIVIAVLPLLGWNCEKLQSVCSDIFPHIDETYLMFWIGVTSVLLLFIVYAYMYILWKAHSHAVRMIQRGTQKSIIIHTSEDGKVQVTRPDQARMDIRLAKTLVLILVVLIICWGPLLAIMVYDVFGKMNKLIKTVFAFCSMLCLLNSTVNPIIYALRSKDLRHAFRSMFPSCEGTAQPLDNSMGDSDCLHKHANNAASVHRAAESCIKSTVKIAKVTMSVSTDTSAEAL

As for `Cc1cc(Cl)ccc1N(C(=O)c1ccc(Cl)cc1Cl)c1nc2ccccc2s1` [Example 8, N-Benzothiazol-2-yl-2,4-dichloro-N-(4-chloro-2-methyl-phenyl)-benzamide], the IC50 in experiment [1] was 0.73 µM.

Compound `COc1ccc(N(C(=O)c2ccc(C(F)(F)F)cc2F)c2nc3ccccc3s2)cc1` [Example 9, N-Benzothiazol-2-yl-2-fluoro-N-(4-methoxy-phenyl)-4-trifluoromethyl-benzamide] came in with an IC50 in experiment [1] of 1.96 µM.

As for `COc1ccc(N(C(=O)c2ccc([N+](=O)[O-])cc2Cl)c2nc3ccccc3s2)cc1` [Example 12, N-Benzothiazol-2-yl-2-chloro-N-(4-methoxy-phenyl)-4-nitro-benzamide], the IC50 in experiment [1] was found to be 2.48 µM.

Consider `CCN(CC)c1ccc(N(C(=O)c2ccc([N+](=O)[O-])cc2Cl)c2nc3ccccc3s2)cc1` [Example 28, N-Benzothiazol-2-yl-2-chloro-N-(4-diethylamino-phenyl)-4-nitro-benzamide], for which the IC50 in experiment [1] was determined as 1.38 µM.

In turn, `COc1ccc(N(C(=O)c2ccc(Cl)cc2Cl)c2nc3ccc(N)cc3s2)cc1OC` [Example 45, N-(6-Amino-benzothiazol-2-yl)-2,4-dichloro-N-(3,4-dimethoxy-phenyl)-benzamide] came in with an IC50 in experiment [1] of 0.83 µM.

As for `COc1ccc(N(C(=O)c2ccc(Cl)cc2Cl)c2nc3ccc(NC(=O)Cc4ccccc4)cc3s2)cc1OC` [Example 52, 2,4-Dichloro-N-(3,4-dimethoxy-phenyl)-N-(6-phenylacetylamino-benzothiazol-2-yl)-benzamide], the IC50 in experiment [1] was 1.59 µM.

Take `COc1ccc(N(C(=O)c2ccccc2Cl)c2nc3ccc(NS(=O)(=O)N(C)C)cc3s2)cc1OC` [Example 57, N-[6-(Dimethylamino-1-sulfonylamino)-benzothiazol-2-yl]-2-chloro-N-(3,4-dimethoxy-phenyl)-benzamide]: the IC50 in experiment [1] amounted to 1.42 µM.

`Cc1c(C(=O)NN2CCCCC2)nn(-c2ccc(Cl)cc2Cl)c1-c1ccc(Cl)cc1` [SR141716A]: the “body weight compared to placebo” value in experiment [2] is listed as “significantly reduced body weight”.

By IC50 is commonly meant the concentration that gives 50% inhibition. A higher IC50 goes with a need for much substance.
